This note sets out measurements from US20080090805A1, “CB-1 MODULATING COMPOUNDS AND THEIR USE” (ACADIA PHARMACEUTICALS INC., priority 2005, published 2008).

SMILES strings stand for the structures. Read-outs that look alike come from different tables or passages of the source.

For this assay, the target named is CB1 (mutant) (Homo sapiens, UniProt P21554). In words: R-SAT functional receptor assay, CB1 (mutant, truncated after amino acid 417). The class given is cell-based. To be noted: R-SAT CB1; for Emax / % Inhibition: receptor form not stated, relative to SR141716 (100%); for Emax: read-out: % Inhibition.
Chain of CB1 (mutant) (P21554 1-417, change not shown): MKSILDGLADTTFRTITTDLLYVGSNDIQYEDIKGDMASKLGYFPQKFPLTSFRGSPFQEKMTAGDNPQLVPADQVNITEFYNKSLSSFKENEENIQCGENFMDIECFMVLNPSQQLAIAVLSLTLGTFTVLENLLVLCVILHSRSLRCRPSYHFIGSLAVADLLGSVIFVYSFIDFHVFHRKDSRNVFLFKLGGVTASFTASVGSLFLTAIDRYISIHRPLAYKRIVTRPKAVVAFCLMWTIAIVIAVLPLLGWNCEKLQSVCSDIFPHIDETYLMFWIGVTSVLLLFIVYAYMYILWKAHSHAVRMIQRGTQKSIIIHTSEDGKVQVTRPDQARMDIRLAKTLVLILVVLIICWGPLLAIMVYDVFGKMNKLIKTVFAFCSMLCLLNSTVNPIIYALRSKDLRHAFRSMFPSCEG
Where [1] appears, read: Appendix A, receptor form (mutant or wild-type) not stated, read-out: pIC50 (converted).
The mark [2] stands for this setting: pIC50, Appendix A, receptor form (mutant or wild-type) not stated.

On to `O=C(NCc1cccc(Cl)c1)c1ccc2c(c1)N=C(c1ccc(Cl)cc1)c1ccccc1S2` [drawing 579], for which the IC50 under setting [1] is 3.16 nM. Besides, the Emax (Appendix A) worked out at 112%.

For the molecule `O=C(NCCc1ccncc1)c1ccc2c(c1)N=C(c1ccccc1Cl)c1ccccc1S2`, the IC50 under setting [1] was 316 nM. Further, where the note is “Appendix A”, the Emax turned out to be 82%. On to `CCCCCC1=Nc2cc(C(=O)N3CCN(c4ccc(C)cc4C)CC3)ccc2Sc2ccccc21`, for which the IC50 under setting [1] was 200 nM. Further, the Emax (Appendix A) came out at 107%.

On to `O=C(NCc1ccccn1)c1ccc2c(c1)N=C(c1ccc(Br)cc1)c1ccccc1S2` [drawing 612], for which the IC50 under setting [1] was 50.1 nM. Besides, the Emax (Appendix A) amounted to 90%. In the same order, the values of `O=C(NCc1cccc(Cl)c1)c1ccc2c(c1)N=C(c1cccc(Cl)c1)c1ccccc1S2` [drawing 603] are 3.98 nM and 112%.

For the molecule `O=C(Cc1ccccc1)NNC(=O)c1ccc2c(c1)N=C(c1ccc(F)cc1)c1ccccc1S2` [drawing 840], under setting [1], the IC50 was 158 nM. Also, the Emax (Appendix A) stood at 98%. `COCCNC(=O)c1ccc2c(c1)N=C(c1ccc(Cl)cc1Cl)c1ccccc1S2`: under setting [1], the IC50 was 316 nM. Under “Appendix A”, the Emax turned out to be 69%. As to `CCCC1=Nc2cc(C(=O)NN3CCCCC3)ccc2Sc2ccccc21`, under setting [1], the IC50 was 158 nM. Also, the Emax (Appendix A) was 80%. For `COc1cccc(C2=Nc3cc(C(=O)NC4CCC(F)(F)CC4)ccc3Sc3ccccc32)n1` [drawing 653], the Emax (Appendix A) is 104%. The molecule also gave an IC50 under setting [2] of 6.31 nM.

Consider `O=C(NCc1ccco1)c1ccc2c(c1)N=C(c1ccccc1Cl)c1ccccc1S2`, for which the Emax (Appendix A) came out at 95%. For the molecule `O=C(NN1CCCCC1)c1ccc2c(c1)N=C(c1ccc(Cl)s1)c1ccccc1S2` [drawing 823], the Emax (Appendix A) turned out to be 97%. The IC50 under setting [2] is 12.6 nM. Consider `Cc1ccsc1C1=Nc2cc(C(=O)NC3CCCC3)ccc2Sc2ccccc21` [drawing 652], for which the IC50 under setting [1] was 63.1 nM. Moreover, the Emax (Appendix A) is 81%. The like results for `O=C(NCc1cccs1)c1ccc2c(c1)N=C(c1cccc(F)c1)c1ccccc1S2` [drawing 595] were, in that order, 3.16 nM and 100%.

Regarding `O=C(NN1CCCCC1)c1ccc2c(c1)N=C(C1CCCCC1)c1ccccc1C2`, for the setting “Appendix A”, the Emax was 87%.

Turning to `Cc1ccsc1C1=Nc2cc(C(=O)NC3CCC(F)(F)CC3)ccc2Sc2ccccc21` [drawing 620], the Emax (Appendix A) was 76%. In addition, under setting [2], the IC50 is 63.1 nM.

Usually % Inhibition stands for the drop in the measured response relative to a control, in per cent. Regarding `O=C(NCCc1ccccn1)c1ccc2c(c1)N=C(c1ccc(Cl)cc1)c1ccccc1S2` [drawing 1005], under setting [1], the IC50 was 25.1 nM. Moreover, under “Appendix A”, the “% Inhibition” value was 92%.

On to `CCONC(=O)c1ccc2c(c1)N=C(c1ccc(Cl)cc1Cl)c1ccccc1S2`, for which the IC50 under setting [1] is 3160 nM. The Emax (Appendix A) turned out to be 37%. Take `O=C(NCc1ccncc1)c1ccc2c(c1)N=C(c1ccccc1F)c1ccccc1S2`: the Emax (Appendix A) turned out to be 94%. With `O=C(NCCc1ccncc1)c1ccc2c(c1)N=C(c1cccc(F)c1)c1ccccc1S2` [drawing 1097], the Emax (Appendix A) was determined as 106%. The molecule also gave an IC50 under setting [2] of 31.6 nM. For `CCCC1=Nc2cc(C(=O)NCCN(CC)CC)ccc2Sc2ccccc21`, the IC50 under setting [1] is 1580 nM. Further, where the note is “Appendix A”, the Emax amounted to 131%. On to `COCCNC(=O)c1ccc2c(c1)N=C(c1ccccc1Cl)c1ccccc1S2`, for which the IC50 under setting [1] is 794 nM. For the same molecule, the Emax (Appendix A) was found to be 62%. In the same order, the values of `O=C(NCc1ccncc1)c1ccc2c(c1)N=C(c1ccccc1Cl)c1ccccc1S2` are 794 nM and 67%. Regarding `O=C(NCc1ccncc1)c1ccc2c(c1)N=C(c1cccc(Br)c1)c1ccccc1S2` [drawing 977], under setting [1], the IC50 is 20 nM. The Emax (Appendix A) stood at 95%. On to `O=C(NN1CCCC1)c1ccc2c(c1)N=C(c1ccccc1F)c1ccccc1S2`, for which the IC50 under setting [1] is 200 nM. Besides, the Emax (Appendix A) worked out at 69%.

Take `CCCCNC(=O)c1ccc2c(c1)N=C(c1ccc(Cl)cc1)c1sccc1S2` [drawing 657]: the IC50 under setting [1] was 6.31 nM. Also, the Emax (Appendix A) is 122%.

For `O=C(NNC(=O)c1ccc2c(c1)N=C(c1ccc(Br)cc1)c1ccccc1S2)c1ccccc1`, under setting [1], the IC50 was 251 nM. For the same molecule, the Emax (Appendix A) was 88%. Take `O=C(NCc1cccs1)c1ccc2c(c1)N=C(c1ccc(Cl)s1)c1ccccc1S2` [drawing 553]: under setting [1], the IC50 is 2 nM. In addition, the Emax (Appendix A) is 114%. On to `CC(CNC(=O)c1ccc2c(c1)N=C(c1ccccc1F)c1ccccc1S2)c1ccccc1` (centres unmarked) [drawing 909], for which the IC50 under setting [1] is 15.8 nM. The Emax (Appendix A) was 110%. Regarding `CCCC1=Nc2cc(C(=O)NCCc3cc(OC)ccc3OC)ccc2Sc2ccccc21` [drawing 1051], the IC50 under setting [1] was 31.6 nM. In addition, the Emax (Appendix A) worked out at 98%. Take `CCCNC(=O)c1ccc2c(c1)N=C(c1ccc(Br)cc1)c1ccccc1S2` [drawing 1055]: the IC50 under setting [1] is 31.6 nM. The Emax (Appendix A) was 92%. Turning to `CCCCNC(=O)c1ccc2c(c1)N=C(c1ccccc1OC)c1ccccc1S2`, the IC50 under setting [1] was 251 nM. Moreover, the Emax (Appendix A) turned out to be 80%. In the case of `O=C(NNCc1ccccc1)c1ccc2c(c1)N=C(c1cccc(Br)c1)c1ccccc1S2` [drawing 928], under setting [1], the IC50 was 251 nM. For the setting “Appendix A”, the Emax turned out to be 86%. In the case of `CCCCN(CCCC)CCNC(=O)c1ccc2c(c1)N=C(CCC)c1ccccc1S2`, the IC50 under setting [1] was 398 nM. In addition, where the note is “Appendix A”, the Emax came to 109%. As for `Cc1cccc(C2=Nc3cc(C(=O)NC4CCC(F)(F)CC4)ccc3Sc3ccccc32)n1` [drawing 869], the IC50 under setting [1] is 15.8 nM. The Emax (Appendix A) was 74%. Consider `O=C(NCCc1ccc(Cl)cc1)c1ccc2c(c1)N=C(C1CCCCC1)c1ccccc1S2` [drawing 889], for which, under setting [1], the IC50 was 15.8 nM. In addition, the Emax (Appendix A) came to 104%. For `CCCCNC(=O)c1ccc2c(c1)N=C(c1ccc(Cl)cc1Cl)c1ccccc1S2` [drawing 1165], the IC50 under setting [1] was 39.8 nM. Moreover, where the note is “Appendix A”, the Emax amounted to 98%.

Consider `CCCCNC(=O)c1ccc2c(c1)N=C(c1ccc(Cl)cn1)c1ccc(F)cc1S2` [drawing 632], for which, under setting [1], the IC50 is 63.1 nM. For the same molecule, the Emax (Appendix A) stood at 95%.

Turning to `O=C(NCCc1ccncc1)c1ccc2c(c1)N=C(c1ccc(F)cc1)c1ccccc1S2` [drawing 1031], the IC50 under setting [1] was 25.1 nM. Also, the Emax (Appendix A) amounted to 94%. With `O=C(NCCc1cccnc1)c1ccc2c(c1)N=C(c1ccccc1Cl)c1ccccc1S2`, the IC50 under setting [1] was 158 nM. Also, the Emax (Appendix A) is 76%. As for `O=C(NCc1ccco1)c1ccc2c(c1)N=C(c1ccc(Cl)s1)c1ccccc1S2` [drawing 621], under setting [1], the IC50 is 3.98 nM. Besides, under “Appendix A”, the Emax amounted to 118%.

With `CCCCNC(=O)c1ccc2c(c1)N=C(N1CCCCC1)c1ccccc1S2` [drawing 683], the IC50 under setting [1] is 6.31 nM. Further, the Emax (Appendix A) worked out at 99%. As for `O=C(NCc1ccncc1)c1ccc2c(c1)N=C(c1ccc(Br)cc1)c1ccccc1S2` [drawing 586], the Emax (Appendix A) was determined as 84%. Moreover, under setting [2], the IC50 is 50.1 nM.

For the molecule `CCCCN(C)C(=O)c1ccc2c(c1)N=C(c1ccc(Cl)cc1F)c1ccccc1S2`, for the setting “Appendix A”, the Emax was 84%. As to `O=C(NN1CCCC1)c1ccc2c(c1)N=C(c1ccc(F)cc1)c1ccccc1S2`, under setting [1], the IC50 is 158 nM. In addition, the Emax (Appendix A) turned out to be 92%.

In the case of `O=C(NCCc1ccc(Cl)cc1)c1ccc2c(c1)N=C(N1CCCCC1)c1ccccc1S2` [drawing 775], under setting [1], the IC50 was 10 nM. Besides, where the note is “Appendix A”, the Emax is 113%.

Consider `CCCC1=Nc2cc(C(=O)NCCCN(CC(C)C)CC(C)C)ccc2Sc2ccccc21`, for which the IC50 under setting [1] is 63.1 nM. Besides, under “Appendix A”, the Emax was found to be 103%. With `Cc1ccsc1C1=Nc2cc(C(=O)NCCc3ccncc3)ccc2Sc2ccccc21`, the IC50 under setting [1] is 100 nM. The Emax (Appendix A) worked out at 101%.

In the case of `CCN(CCNC(=O)c1ccc2c(c1)N=C(C1CCCCC1)c1ccccc1S2)c1ccccc1` [drawing 865], under setting [1], the IC50 is 15.8 nM. In addition, the Emax (Appendix A) was found to be 105%. What is called pIC50 is −log10 of the IC50, conventionally taken in molar units. The low end stands for a high IC50, the high end for a low IC50. The molecule `O=C(NCc1cccc(Cl)c1)c1ccc2c(c1)N=C(c1ccc(F)cc1)c1ccccc1S2` [drawing 747] showed a pIC50 (Appendix A, receptor form (mutant or wild-type) not stated) of 8.1. In addition, for the setting “Appendix A”, the “% Inhibition” value is reported as 106%.

As to `O=C(NN1CCCCC1)c1ccc2c(c1)NC(C1CCCCC1)c1ccccc1S2` (centres unmarked), the IC50 under setting [1] was 501 nM. The Emax (Appendix A) was 43%. On to `O=C(NCCc1ccccc1)c1ccc2c(c1)N=C(c1ccc(F)cc1)c1ccccc1S2` [drawing 839], for which the IC50 under setting [1] was 12.6 nM. Further, the Emax (Appendix A) worked out at 103%.

On to `O=C(NCc1cccs1)c1ccc2c(c1)N=C(c1ccccc1Cl)c1ccccc1S2`, for which the IC50 under setting [1] was 200 nM. For the same molecule, the Emax (Appendix A) is 87%. For the molecule `CCCNC(=O)c1ccc2c(c1)N=C(CCC)c1ccccc1S2`, under setting [1], the IC50 was 31.6 nM. Also, the Emax (Appendix A) came out at 95%. The like results for `CCONC(=O)c1ccc2c(c1)N=C(c1ccc(Cl)cc1)c1ccccc1S2` were, in that order, 63.1 nM and 91%.

As to `CCCC1=Nc2cc(C(=O)NCc3ccco3)ccc2Sc2ccccc21`, the IC50 under setting [1] is 31.6 nM. Under “Appendix A”, the Emax was found to be 103%. Regarding `O=C(NC1CCCCC1)c1ccc2c(c1)N=C(c1ccc(F)cc1)c1ccccc1S2` [drawing 1065], the IC50 under setting [1] was 31.6 nM. For the same molecule, for the setting “Appendix A”, the Emax came to 111%.

As to `CCCC1=Nc2cc(C(=O)NCc3ccccc3)ccc2Sc2ccccc21`, under setting [1], the IC50 was 20 nM. The Emax (Appendix A) is 111%. Take `CON(C)C(=O)c1ccc2c(c1)N=C(c1ccc(Cl)c(Cl)c1)c1ccccc1S2`: under “Appendix A”, the Emax is 0%. Regarding `CCCC1=Nc2cc(C(=O)NC(C)C34CC5CC(CC(C5)C3)C4)ccc2Sc2ccccc21` (centres unmarked), the IC50 under setting [1] is 79.4 nM. For the same molecule, the Emax (Appendix A) turned out to be 112%. In the same order, the values of `CCCCNC(=O)c1ccc2c(c1)N=C(c1ccccc1)c1ccccc1S2` [drawing 761] are 10 nM and 104%.

Regarding `CCCC1=Nc2cc(C(=O)NCCCN3CCN(c4cc(C)ccc4C)CC3)ccc2Sc2ccccc21`, under setting [1], the IC50 was 316 nM. Where the note is “Appendix A”, the Emax was 126%.

For the molecule `O=C(NNCC(F)(F)F)c1ccc2c(c1)N=C(c1cccc(Cl)c1)c1ccccc1S2` [drawing 678], the IC50 under setting [1] was 63.1 nM. Also, the Emax (Appendix A) was 99%.
